# In US20220062371A1, “LIGAND-DRUG-CONJUGATES AS SUBSTRATES FOR SELECTIVE CLEAVAGE BY THE EXOPEPTIDASE ACTIVITY OF CATHEPSIN B” (DEBIOPHARM RESEARCH & MANUFACTURING S.A., priority 2017, published 2022):
# Values joined by “and” are separate entries in the source; they are usually repeats but may differ in a detail not shown here. Identical values can stand only once. Like-named read-outs stand apart in the source and are kept apart here. Non-standard residues stand in square brackets, D forms with d. Residues, ends and D or L forms follow the SMILES beside them. Groups on a side chain read outwards from the residue. *: point of attachment. DM1Mal(CH2)2CO = COc1cc2cc(c1Cl)N(C)C(=O)C[C@H](OC(=O)[C@H](C)N(C)C(=O)CCSC1CC(=O)N(CCC(=O)*)C1=O)[C@]1(C)O[C@H]1[C@H](C)[C@@H]1C[C@@](O)(NC(=O)O1)[C@H](OC)/C=C/C=C(\C)C2; Camptothecin(20S-OCO) = CC[C@@]1(OC(=O)*)C(=O)OCc2c1cc1n(c2=O)Cc2cc3ccccc3nc2-1; X2 = CC(=O)N[C@@H](CSC1CC(=O)N(CCC(=O)*)C1=O)C(=O)O; Dolaproine = CO[C@@H]([C@@H]1CCCN1)[C@@H](C)C(=O)O; Dil = CC[C@H](C)[C@H](NC)[C@@H](CC(=O)O)OC; NMe2Val = CC(C)[C@@H](C(=O)*)N(C)C; PEG5 = NCCOCCOCCOCCOCCOCCC(=O)O; Cit = NC(=O)NCCC[C@H](N)C(=O)O; PEG4 = NCCOCCOCCOCCOCCC(=O)O; Dap = NC[C@H](N)C(=O)O
# Tests used:
# [1] = target: T1, recombinant human Cathepsin B (Homo sapiens, UniProt P07858); assay: Recombinant human Cathepsin B-induced cleavage (in vitro enzymatic cleavage assay, UHPLC-MS/MS); assay type: biochemical; settings: for half-life at 10 μM: human, Cathepsin B 2 μg/mL, 25 mM MES buffer pH 5.0, 37° C., read-out: T1/2 Compound; for Ratio (T1/2 Compound/T1/2 Reference): reference Cys-MC-Val-Cit-PABC-MMAF; for cleavage rate compared to reference PABC compound (times faster): versus Cys-MC-Val-Cit-PABC-MMAF
# T1 construct: purchased R&D Systems (Bio-Techne AG) 953-CY-010
# Experimental: Cat B-induced cleavage of the compounds of the present invention was evaluated according to the in vitro enzymatic cleavage assay using recombinant human Cathepsin B and UHPLC-MS/MS analysis as described below.
# Reference compounds Cys-MC-Val-Cit-PABC-MMAF and MMAF were used as positive controls.
# The in vitro enzymatic assay was conducted at 37° C. with the test compounds at a concentration of 10 μM (2.5 μM when the test compound is an antibody-drug conjugate) in the presence of activated recombinant human Cathepsin B enzyme at 2 μg/mL in a 25 mM MES buffer pH 5.0. The enzymatic cleavage reaction was stopped for each defined time point by mixing an equal volume of acetonitrile+0.1% FA containing an internal standard (warfarine at 8 μM).
# Analysis was conducted using a Waters Acquity UPLC System coupled to a Waters Xevo TQ triple quad mass spectrometer. UHPLC was conducted depending on the test compounds with a BEH C8 1.7 μm 100×2.1 mm or BEH C18 1.7 μm 50×2.1 mm or HSS T3 1.7 μm 50×2.1 mm columns heated at 45° C. or 50° C. and fitted with 2 μm insert filter pre-columns (available from Waters), and solvent systems A1 (H2O+0.1% FA) and B1 (acetonitrile+0.1% FA) at a flow rate of 0.6 mL/min and a 10-95% gradient of B1 over 1.9 min.
# MS/MS was performed using electrospray ionization (ESI) interface in positive mode and specific MRM transitions for each tested compound.
# [2] = system: MDA-MB-231 (ErbB2 negative) cells; assay: Cytotoxic activity, Alamar Blue assay; assay type: cell-based; settings: read-out: Relative IC50 at 96 h (day 4)
# Experimental: (§1) Log phase cultures of cell lines SK-OV-3 (ErbB2-expressing), SK-BR-3 (ErbB2-expressing), BT-474 (ErbB2-expressing) and MDA-MB-231 (ErbB2 negative) were collected and cells plated at seeding densities ranging from 1,500 to 12,000 cells/well in 96-well microtiter plates according to pre-determined conditions.
# (§2) Assessment of cellular growth was done using Alamar Blue (available from Thermo Fisher Scientific) dye reduction assay. Alamar Blue was added to cells to constitute 10% culture volume. Cells were incubated for 4 to 6 hours, and dye reduction was measured by fluorescence on an EnSpire plate reader (Perkin Elmer). Background corrected fluorescence measurements were transformed in % scale by considering vehicle value as 100% activity (relative measurements). Next, relative measurements were analyzed using GraphPad Prism software to derive relative IC50. All experiments were done twice with 3 replicates per concentration. Error bars: SEM (n=3). Cytotoxicity of AF and AF-Arg on ErbB2-expressing SK-OV-3 and SK-BR-3 cells after 72 and 120 h of treatment. SK-OV-3 and SK-BR-3 cells were seeded the day before treatment in complete culture medium. After overnight resting, cells were treated with decreasing concentrations of test compounds in complete culture medium (AF: 10 μM-1 pM; AF-Arg: 10 μM-1 pM, log-dilution).
# (§3) SK-OV-3, SK-BR-3 and MDA-MB-231 cells were seeded the day before treatment in complete culture medium.
# BT-474 and MDA-MB-231 cells were seeded the day before treatment in complete culture medium.
# [3] = system: BT-474 (ErbB2-expressing) cells; assay: Cytotoxic activity, Alamar Blue assay; assay type: cell-based; settings: ADC3 study, read-out: Relative IC50 at 96 h (day 4)
# Experimental: as §1
# as §2, with “log-dilution). […]” for “log-dilution).”
# [4] = system: SK-OV-3 (ErbB2-expressing) cells; assay: Cytotoxic activity, Alamar Blue assay; assay type: cell-based
# Experimental: as §1, §2, §3
# [5] = system: SK-BR-3 (ErbB2-expressing) cells; assay: Cytotoxic activity, Alamar Blue assay; assay type: cell-based
# Experimental: as §1, §2, §3
# [6] = system: SK-BR-3 (ErbB2-expressing) cells; assay: Cytotoxic activity, Alamar Blue assay; assay type: cell-based; settings: ADC1 study, read-out: Relative IC50 at 96 h (day 4)
# [7] = system: SK-OV-3 (ErbB2-expressing) cells; assay: Cytotoxic activity, Alamar Blue assay; assay type: cell-based; settings: ADC1 study, read-out: Relative IC50 at 96 h (day 4)
# [8] = SK-OV-3, run 1, 72 h, read-out: Relative IC50 at 72 h (day 3)
# [9] = SK-OV-3, run 1, 120 h, read-out: Relative IC50 at 120 h (day 5)
# [10] = SK-OV-3, run 2, 72 h, read-out: Relative IC50 at 72 h (day 3)
# [11] = SK-OV-3, run 2, 120 h, read-out: Relative IC50 at 120 h (day 5)
# [12] = SK-BR-3, run 1, 72 h, read-out: Relative IC50 at 72 h (day 3)
# [13] = SK-BR-3, run 1, 120 h, read-out: Relative IC50 at 120 h (day 5)
# [14] = SK-BR-3, run 2, 72 h, read-out: Relative IC50 at 72 h (day 3)
# [15] = SK-BR-3, run 2, 120 h, read-out: Relative IC50 at 120 h (day 5)
compound,measurement,setting,value
"COc1cc2cc(c1Cl)N(C)C(=O)C[C@H](OC(=O)[C@H](C)N(C)C(=O)CCSC1CC(=O)N(CCC(=O)NCCCC[C@H](NC(=O)[C@H](CCCCN)NC(=O)[C@H](Cc3ccccc3)NC(=O)[C@H](Cc3ccccc3)NC(=O)[C@H](CCCCNC(=O)CCN3C(=O)CC(SCCC(=O)N(C)[C@@H](C)C(=O)O[C@H]4CC(=O)N(C)c5cc(cc(OC)c5Cl)C/C(C)=C/C=C/[C@@H](OC)[C@@]5(O)C[C@H](OC(=O)N5)[C@@H](C)[C@@H]5O[C@@]45C)C3=O)NC(=O)[C@H](CCCCN)NC(=O)[C@H](Cc3ccccc3)NC(=O)CCOCCOCCOCCOCCNC(=O)CCN3C(=O)CC(SC[C@H](NC(C)=O)C(=O)O)C3=O)C(=O)N[C@@H](Cc3ccccc3)C(=O)O)C1=O)[C@]1(C)O[C@H]1[C@H](C)[C@@H]1C[C@@](O)(NC(=O)O1)[C@H](OC)/C=C/C=C(\C)C2 (stereo partly drawn) [Compound 29, Ac-Cys-Mal-PEG4-[Phe-Lys-Lys(Mal-DM1)-Phe]2-OH] ({X2-PEG4}-FKK(DM1Mal(CH2)2CO)FFKK(DM1Mal(CH2)2CO)F-OH)",half-life at 10 μM,[1]; 10 μM test compound,2.4 min
same,Ratio (T1/2 Compound/T1/2 Reference),[1],0.23
same,cleavage rate compared to reference PABC compound (times faster),[1],~5 fold
"COc1cc2cc(c1Cl)N(C)C(=O)C[C@H](OC(=O)[C@H](C)N(C)C(=O)CCSC1CC(=O)N(CCC(=O)NCCCC[C@H](NC(=O)[C@H](CCCCN)NC(=O)[C@H](Cc3ccccc3)NC(=O)CCOCCOCCOCCOCCNC(=O)CCN3C(=O)CC(SC[C@H](NC(C)=O)C(=O)O)C3=O)C(=O)N[C@@H](Cc3ccccc3)C(=O)N[C@@H](Cc3ccccc3)C(=O)N[C@@H](CCCCN)C(=O)O)C1=O)[C@]1(C)O[C@H]1[C@H](C)[C@@H]1C[C@@](O)(NC(=O)O1)[C@H](OC)/C=C/C=C(\C)C2 (stereo partly drawn) [Compound 28, Ac-Cys-Mal-PEG4-Phe-Lys-Lys(Mal-DM1)-Phe-Phe-Lys-OH] ({X2-PEG4}-FKK(DM1Mal(CH2)2CO)FFK-OH)",half-life at 10 μM,[1]; 10 μM test compound,0.3 min
"CC[C@H](C)[C@@H]([C@@H](CC(=O)N1CCC[C@H]1[C@H](OC)[C@@H](C)C(=O)N[C@@H](Cc1ccccc1)C(=O)N[C@@H](CCCNC(N)=O)C(=O)N[C@@H](CCCCNC(=O)CCN1C(=O)CC(SCCC(=O)N(C)[C@@H](C)C(=O)O[C@H]2CC(=O)N(C)c3cc(cc(OC)c3Cl)C/C(C)=C/C=C/[C@@H](OC)[C@@]3(O)C[C@H](OC(=O)N3)[C@@H](C)[C@@H]3O[C@@]23C)C1=O)C(=O)N[C@@H](Cc1ccccc1)C(=O)N[C@@H](CCCCNC(=O)CCOCCOCCOCCOCCNC(=O)CCN1C(=O)CC(SC[C@H](NC(C)=O)C(=O)O)C1=O)C(=O)N[C@@H](Cc1ccccc1)C(=O)O)OC)N(C)C(=O)[C@@H](NC(=O)[C@H](C(C)C)N(C)C)C(C)C (stereo partly drawn) [Compound 31, AF-Cit-Lys(Mal-DM1)-Phe-Lys(PEG4-Mal-Cys-Ac)-Phe-OH] (NMe2Val-V[Dil][Dolaproine]F[Cit]K(DM1Mal(CH2)2CO)FK([PEG4-X2])F-OH)",half-life at 10 μM,[1]; 10 μM test compound,1.08 min
same,Ratio (T1/2 Compound/T1/2 Reference),[1],0.08
same,cleavage rate compared to reference PABC compound (times faster),[1],more than 10 fold
"COc1cc2cc(c1Cl)N(C)C(=O)C[C@H](OC(=O)[C@H](C)N(C)C(=O)CCS)[C@]1(C)O[C@H]1[C@H](C)[C@@H]1C[C@@](O)(NC(=O)O1)[C@H](OC)/C=C/C=C(\C)C2 [DM1, N2′-deacetyl-N2′-(3-mercapto-1-oxopropyl)-maytansine, reference compound]",IC50,"[2]; MDA-MB-231, run 1, 96 h, ADC3 study",44.2 nM
same,IC50,"[2]; MDA-MB-231, run 2, 96 h, ADC3 study",57 nM
same,IC50,"[3]; BT-474, run 1, 96 h",2.8 nM
same,IC50,"[3]; BT-474, run 2, 96 h",3 nM
"CC[C@H](C)[C@@H]([C@@H](CC(=O)N1CCC[C@H]1[C@H](OC)[C@@H](C)C(=O)N[C@@H](Cc1ccccc1)C(=O)O)OC)N(C)C(=O)[C@@H](NC(=O)[C@H](C(C)C)N(C)C)C(C)C [AF, Auristatin F, reference compound] (NMe2Val-V[Dil][Dolaproine]F-OH)",IC50,[4]; [8],82.8 nM
same,IC50,[4]; [9],100 nM and ~100 nM
same,IC50,[4]; [10],154 nM
same,IC50,[4]; [11],145 nM
same,IC50,[5]; [12],37.4 nM
same,IC50,[5]; [13],18.8 nM
same,IC50,[5]; [14],53.7 nM
same,IC50,[5]; [15],21.8 nM
"CC[C@@]1(OC(=O)NC[C@H](NC(=O)[C@H](CCCNC(=N)N)NC(=O)[C@H](Cc2ccccc2)NC(=O)CCOCCOCCOCCOCCOCCNC(=O)[C@@H](N)CCCNC(=N)N)C(=O)N[C@@H](Cc2ccccc2)C(=O)O)C(=O)OCc2c1cc1n(c2=O)Cc2cc3ccccc3nc2-1 [Compound 9, Arg-PEG4-Phe-Arg-Dap(CO-CPT)-Phe-OH] (H-R[PEG5]FR[Dap](Camptothecin(20S-OCO))F-OH; N-terminus assumed)",half-life at 10 μM,"[1]; pH 5, 10 μM test compound",4.5 min
same,Ratio (T1/2 Compound/T1/2 Reference),[1],0.63
AF-Arg,IC50,"[6]; SK-BR-3, run 1, 96 h",~92.1 nM
same,IC50,"[6]; SK-BR-3, run 2, 96 h",128 nM
same,IC50,"[2]; MDA-MB-231, run 1, 96 h, ADC1 study",15.2 nM
same,IC50,"[2]; MDA-MB-231, run 2, 96 h, ADC1 study",5.84 nM
same,IC50,[4]; [8],180 nM
same,IC50,[4]; [9],147 nM
same,IC50,[4]; [10],240 nM
same,IC50,[4]; [11],205 nM
same,retained cytotoxic activity relative to the native drug (AF),"[4]; SK-OV-3 cells, 120 h",about 70%
same,IC50,[5]; [12],~98 nM
same,IC50,[5]; [13],20.9 nM
same,IC50,[5]; [14],~111 nM
same,IC50,[5]; [15],24.9 nM
same,retained cytotoxic activity relative to the native drug (AF),"[5]; SK-BR-3 cells, 120 h",greater than 85%
same,IC50,"[7]; SK-OV-3, run 1, 96 h",82.6 nM
same,IC50,"[7]; SK-OV-3, run 2, 96 h",244 nM
